Assay results reported in ChEMBL document CHEMBL1909046, “DrugMatrix in vitro pharmacology data”.

Tests used:
Cytochrome P450 3A4 = Cytochrome P450 3A4 (Homo sapiens, UniProt P08684); settings: bti-tn-5b1-4; note: in other assays of this panel Not Active means under 50% inhibition at 10 µM
[1] = molecular target: Sodium-dependent noradrenaline transporter (Homo sapiens, UniProt P23975); assay: DRUGMATRIX: Norepinephrine Transporter radioligand binding (ligand: [125I] RTI-55); type: cell membranes, MDCK, Membrane; settings: Not Active = under 50% inhibition at 10 µM
[2] = DRUGMATRIX: Glutamate, NMDA, Phencyclidine radioligand binding (ligand: [3H] TCP); type: cell membranes, Rattus norvegicus, Wistar, Cerebral cortex, Membrane; settings: Not Active = under 50% inhibition at 10 µM
Substance-P receptor = Substance-P receptor (Homo sapiens, UniProt P25103); type: cell membranes, Membrane; settings: cho; note: in other assays of this panel Not Active means under 50% inhibition at 10 µM
Endothelin-1 receptor = molecular target: T1, Endothelin-1 receptor (Homo sapiens, UniProt P25101); type: cell membranes, Membrane; settings: cho-k1; note: in other assays of this panel Not Active means under 50% inhibition at 10 µM
T1 sequence (P25101 whole entry): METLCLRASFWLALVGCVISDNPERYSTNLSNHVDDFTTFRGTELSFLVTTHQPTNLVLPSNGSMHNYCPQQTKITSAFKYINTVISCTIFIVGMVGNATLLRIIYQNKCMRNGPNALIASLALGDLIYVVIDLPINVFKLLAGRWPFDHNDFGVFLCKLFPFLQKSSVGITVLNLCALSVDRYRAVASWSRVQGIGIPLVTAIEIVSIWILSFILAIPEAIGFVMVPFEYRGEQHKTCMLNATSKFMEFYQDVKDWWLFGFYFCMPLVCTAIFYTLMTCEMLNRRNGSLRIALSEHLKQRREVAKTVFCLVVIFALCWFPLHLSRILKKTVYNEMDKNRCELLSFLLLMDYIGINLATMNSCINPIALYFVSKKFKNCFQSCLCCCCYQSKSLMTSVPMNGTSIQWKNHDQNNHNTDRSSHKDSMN

[3] = molecular target: Voltage-gated inwardly rectifying potassium channel KCNH2 (Homo sapiens, UniProt Q12809); settings: hek293; note: in other assays of this panel Not Active means under 50% inhibition at 10 µM
Melanocortin receptor 5 = Melanocortin receptor 5 (Homo sapiens, UniProt P33032); type: cell membranes, HEK293, Membrane; settings: hek293; note: in other assays of this panel Not Active means under 50% inhibition at 10 µM
[4] = molecular target: T2, Neuropeptide Y receptor type 2 (Homo sapiens, UniProt P49146); type: cell membranes, Membrane; settings: kan-ts; note: in other assays of this panel Not Active means under 50% inhibition at 10 µM
T2 sequence (P49146 whole entry): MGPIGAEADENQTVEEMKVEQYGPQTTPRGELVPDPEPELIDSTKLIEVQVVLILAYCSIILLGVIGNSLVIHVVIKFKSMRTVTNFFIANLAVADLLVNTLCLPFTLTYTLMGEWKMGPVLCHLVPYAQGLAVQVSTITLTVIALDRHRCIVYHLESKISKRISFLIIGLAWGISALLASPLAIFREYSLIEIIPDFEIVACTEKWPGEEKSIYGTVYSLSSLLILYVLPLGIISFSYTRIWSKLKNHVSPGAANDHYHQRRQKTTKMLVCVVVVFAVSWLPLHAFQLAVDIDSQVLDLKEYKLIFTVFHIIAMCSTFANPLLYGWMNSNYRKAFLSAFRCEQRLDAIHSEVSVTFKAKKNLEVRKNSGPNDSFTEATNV

Sequence of Substance-P receptor (P25103 whole entry): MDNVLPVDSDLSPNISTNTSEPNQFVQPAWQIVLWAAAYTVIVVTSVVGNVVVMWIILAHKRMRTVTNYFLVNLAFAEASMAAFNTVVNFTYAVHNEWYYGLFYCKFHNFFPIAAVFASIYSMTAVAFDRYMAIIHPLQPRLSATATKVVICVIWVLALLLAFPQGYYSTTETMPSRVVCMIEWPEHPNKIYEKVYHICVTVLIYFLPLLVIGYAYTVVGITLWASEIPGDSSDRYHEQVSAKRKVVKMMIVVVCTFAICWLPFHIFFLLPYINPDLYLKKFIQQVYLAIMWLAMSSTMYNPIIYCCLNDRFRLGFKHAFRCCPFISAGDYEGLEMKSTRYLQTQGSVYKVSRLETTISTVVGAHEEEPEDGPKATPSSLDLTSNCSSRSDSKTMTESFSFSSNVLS
Sequence of Voltage-gated inwardly rectifying potassium channel KCNH2 (Q12809 whole entry): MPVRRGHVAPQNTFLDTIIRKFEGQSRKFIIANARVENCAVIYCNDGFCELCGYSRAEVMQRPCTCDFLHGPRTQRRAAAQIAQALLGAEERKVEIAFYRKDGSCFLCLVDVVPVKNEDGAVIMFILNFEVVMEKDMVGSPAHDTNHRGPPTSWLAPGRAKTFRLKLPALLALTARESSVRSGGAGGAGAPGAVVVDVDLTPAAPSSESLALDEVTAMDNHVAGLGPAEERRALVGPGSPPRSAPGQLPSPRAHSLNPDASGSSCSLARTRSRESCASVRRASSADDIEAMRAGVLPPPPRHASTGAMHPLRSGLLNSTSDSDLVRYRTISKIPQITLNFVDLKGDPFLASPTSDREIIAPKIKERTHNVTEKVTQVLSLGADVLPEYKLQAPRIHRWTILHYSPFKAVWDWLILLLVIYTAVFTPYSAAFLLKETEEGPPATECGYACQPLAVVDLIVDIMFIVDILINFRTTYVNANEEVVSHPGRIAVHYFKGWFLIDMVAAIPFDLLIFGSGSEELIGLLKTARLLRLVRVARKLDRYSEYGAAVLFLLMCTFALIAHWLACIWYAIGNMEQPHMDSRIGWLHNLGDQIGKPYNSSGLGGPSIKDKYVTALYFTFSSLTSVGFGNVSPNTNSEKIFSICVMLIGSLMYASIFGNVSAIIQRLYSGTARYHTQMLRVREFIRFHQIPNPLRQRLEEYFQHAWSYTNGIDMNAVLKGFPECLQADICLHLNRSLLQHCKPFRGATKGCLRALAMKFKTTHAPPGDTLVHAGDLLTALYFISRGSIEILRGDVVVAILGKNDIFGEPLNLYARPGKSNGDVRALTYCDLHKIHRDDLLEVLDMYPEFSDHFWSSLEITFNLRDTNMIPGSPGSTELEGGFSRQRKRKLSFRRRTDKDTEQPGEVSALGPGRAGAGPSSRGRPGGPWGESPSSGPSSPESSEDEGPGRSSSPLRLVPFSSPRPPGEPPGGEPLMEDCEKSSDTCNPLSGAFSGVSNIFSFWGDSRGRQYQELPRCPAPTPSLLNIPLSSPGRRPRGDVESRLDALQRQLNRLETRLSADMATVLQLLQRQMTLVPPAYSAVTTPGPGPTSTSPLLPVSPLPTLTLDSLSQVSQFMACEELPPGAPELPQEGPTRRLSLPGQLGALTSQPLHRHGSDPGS
Sequence of Sodium-dependent noradrenaline transporter (P23975 whole entry): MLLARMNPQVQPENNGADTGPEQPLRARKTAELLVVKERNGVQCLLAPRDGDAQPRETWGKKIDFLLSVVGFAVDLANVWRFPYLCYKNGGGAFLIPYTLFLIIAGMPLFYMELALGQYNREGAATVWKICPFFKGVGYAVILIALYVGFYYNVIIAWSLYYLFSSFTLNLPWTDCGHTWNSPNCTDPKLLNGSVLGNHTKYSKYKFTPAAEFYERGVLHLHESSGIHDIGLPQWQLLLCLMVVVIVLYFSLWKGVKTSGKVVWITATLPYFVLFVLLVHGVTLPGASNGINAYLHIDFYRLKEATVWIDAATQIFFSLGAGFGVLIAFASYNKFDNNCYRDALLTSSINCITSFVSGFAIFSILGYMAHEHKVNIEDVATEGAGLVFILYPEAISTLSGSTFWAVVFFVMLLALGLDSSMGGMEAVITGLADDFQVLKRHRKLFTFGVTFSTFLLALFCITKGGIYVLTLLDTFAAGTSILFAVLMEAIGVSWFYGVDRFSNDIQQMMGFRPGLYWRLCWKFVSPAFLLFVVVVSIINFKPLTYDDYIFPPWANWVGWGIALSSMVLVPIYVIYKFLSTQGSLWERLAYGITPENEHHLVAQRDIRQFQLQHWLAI
Sequence of Cytochrome P450 3A4 (P08684 whole entry): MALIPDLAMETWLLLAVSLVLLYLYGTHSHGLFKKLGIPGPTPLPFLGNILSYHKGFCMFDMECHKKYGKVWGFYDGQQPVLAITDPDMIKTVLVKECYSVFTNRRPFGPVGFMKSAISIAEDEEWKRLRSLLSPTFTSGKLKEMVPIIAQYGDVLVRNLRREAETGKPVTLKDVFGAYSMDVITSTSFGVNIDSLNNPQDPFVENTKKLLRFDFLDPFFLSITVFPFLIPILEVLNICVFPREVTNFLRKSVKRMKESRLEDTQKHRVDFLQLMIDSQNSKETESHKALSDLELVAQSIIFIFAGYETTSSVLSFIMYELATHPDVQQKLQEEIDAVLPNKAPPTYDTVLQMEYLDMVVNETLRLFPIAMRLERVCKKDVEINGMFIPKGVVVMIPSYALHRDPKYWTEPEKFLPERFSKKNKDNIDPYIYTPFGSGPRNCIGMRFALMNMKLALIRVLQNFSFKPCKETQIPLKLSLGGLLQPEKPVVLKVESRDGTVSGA
Sequence of Melanocortin receptor 5 (P33032 whole entry): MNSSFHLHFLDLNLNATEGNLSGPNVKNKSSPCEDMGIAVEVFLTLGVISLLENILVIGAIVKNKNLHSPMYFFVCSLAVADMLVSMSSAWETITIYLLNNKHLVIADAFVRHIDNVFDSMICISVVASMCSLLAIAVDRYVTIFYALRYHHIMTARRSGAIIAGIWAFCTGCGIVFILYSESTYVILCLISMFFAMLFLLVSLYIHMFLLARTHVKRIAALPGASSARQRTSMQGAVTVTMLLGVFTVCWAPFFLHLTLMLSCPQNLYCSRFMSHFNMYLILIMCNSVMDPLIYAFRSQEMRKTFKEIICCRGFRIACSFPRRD

Row | Molecule | IC50 (Cytochrome P450 3A4) | Ki (Cytochrome P450 3A4) | IC50 ([1]; mdck) | IC50 [2] | Ki [2] | IC50 (Substance-P receptor) | IC50 (Endothelin-1 receptor) | IC50 [3] | Ki [3] | IC50 (Melanocortin receptor 5) | IC50 [4] | IC50 ([1]; read-out: IC50) | Ki ([1]; read-out: Ki) | Ki ([1]; mdck) | Ki (Substance-P receptor) | Ki (Endothelin-1 receptor) | Ki (Melanocortin receptor 5) | Ki [4]
1 | COc1ccc(C[C@H](N)C(=O)N[C@H]2[C@@H](O)[C@H](n3cnc4c(N(C)C)ncnc43)O[C@@H]2CO)cc1 [PUROMYCIN] | Not Active | Not Active | Not Active | Not Active | Not Active | Not Active | Not Active | Not Active | Not Active | Not Active | Not Active |  |  |  |  |  |  | 
2 | CCC1(c2ccccc2)C(=O)NC(=O)NC1=O [PHENOBARBITAL] | Not Active | Not Active | Not Active | Not Active | Not Active | Not Active | Not Active | Not Active | Not Active | Not Active | Not Active |  |  |  |  |  |  | 
3 | O=C1c2ccccc2C(=O)C1c1ccccc1 [PHENINDIONE] | Not Active | Not Active | Not Active | Not Active | Not Active | Not Active | Not Active | Not Active | Not Active | Not Active | Not Active |  |  |  |  |  |  | 
4 | OC[C@H]1OC2C3[C@@H](CO)OC(O[C@H]4[C@H](O)[C@@H](O)[C@@H](O[C@H]5[C@H](O)[C@@H](O)[C@@H](O[C@H]6[C@H](O)[C@@H](O)[C@@H](O[C@H]7[C@H](O)[C@@H](O)[C@@H](O[C@H]8[C@H](O)[C@@H](O)[C@@H](O[C@H]9[C@H](O)[C@@H](O)C(OC1[C@H](O)[C@H]2O)O[C@@H]9CO)O[C@@H]8CO)O[C@@H]7CO)O[C@@H]6CO)O[C@@H]5CO)O[C@@H]4CO)[C@H](O)[C@H]3O | Not Active | Not Active | Not Active | Not Active | Not Active | Not Active | Not Active | Not Active | Not Active | Not Active | Not Active |  |  |  |  |  |  | 
5 | CO[C@H]1O[C@@H]2O[C@@]3(C)CC[C@H]4[C@H](C)CC[C@@H]([C@H]1C)[C@@]24OO3 | Not Active | Not Active | Not Active | Not Active | Not Active | Not Active | Not Active | Not Active | Not Active | Not Active | Not Active |  |  |  |  |  |  | 
6 | CC(C)Cn1cnc2c(N)nc3ccccc3c21 [IMIQUIMOD] | Not Active | Not Active | Not Active | Not Active | Not Active | Not Active | Not Active | Not Active | Not Active | Not Active | Not Active |  |  |  |  |  |  | 
7 | COc1cc(NC(C)CCCN)c2ncccc2c1 (centres undefined) [PRIMAQUINE] | Not Active | Not Active | Not Active | Not Active | Not Active | Not Active | Not Active | Not Active | Not Active | Not Active | Not Active |  |  |  |  |  |  | 
8 | O=C(O)COC(=O)Cc1ccccc1Nc1c(Cl)cccc1Cl [ACECLOFENAC] | Not Active | Not Active | Not Active | Not Active | Not Active | Not Active | Not Active | Not Active | Not Active | Not Active | Not Active |  |  |  |  |  |  | 
9 | Cc1cc(C(C)(C)C)c(O)c(C)c1CC1=NCCN1 [OXYMETAZOLINE] | Not Active | Not Active | Not Active | Not Active | Not Active | Not Active | Not Active | Not Active | Not Active | Not Active | Not Active |  |  |  |  |  |  | 
10 | O=C(Nc1ccc(Cl)c(Cl)c1)c1cc(Cl)cc(Cl)c1O [3,3',4',5-TETRACHLOROSALICYLANILIDE] | Not Active | Not Active | Not Active | Not Active | Not Active | Not Active | Not Active | Not Active | Not Active | Not Active | Not Active |  |  |  |  |  |  | 
11 | O=C(O)CO [GLYCOLIC ACID] | Not Active | Not Active | Not Active | Not Active | Not Active | Not Active | Not Active | Not Active | Not Active | Not Active | Not Active |  |  |  |  |  |  | 
12 | COC(=O)C[C@](O)(CCC(C)(C)O)C(=O)O[C@@H]1C(OC)=C[C@]23CCCN2CCc2cc4c(cc2[C@H]13)OCO4 [HARRINGTONINE] | Not Active | Not Active | Not Active | Not Active | Not Active | Not Active | Not Active | Not Active | Not Active | Not Active | Not Active |  |  |  |  |  |  | 
13 | CC(C)(c1ccc(O)cc1)c1ccc(O)cc1 [BISPHENOL A] | Not Active | Not Active |  | Not Active | Not Active | Not Active | Not Active | Not Active | Not Active | Not Active | Not Active | 16.6 µM | 16.5 µM |  |  |  |  | 
14 | C=CCO [ALLYL ALCOHOL] | Not Active | Not Active | Not Active | Not Active | Not Active | Not Active | Not Active | Not Active | Not Active | Not Active | Not Active |  |  |  |  |  |  | 
15 | C[C@]12CC[C@@H](O)C[C@@H]1CC[C@@H]1[C@@H]2CC[C@]2(C)C(=O)CC[C@@H]12 [ANDROSTERONE] | Not Active | Not Active | Not Active | Not Active | Not Active | Not Active | Not Active | Not Active | Not Active | Not Active | Not Active |  |  |  |  |  |  | 
16 | CC(CN1c2ccccc2Sc2ccccc21)N(C)C (centres undefined) [PROMETHAZINE] | Not Active | Not Active |  | Not Active | Not Active | Not Active | Not Active | Not Active | Not Active | Not Active | Not Active | 4.24 µM | 4.2 µM |  |  |  |  | 
17 | C[N+](C)(C)CCOP(=O)([O-])OC[C@H](O)CO | Not Active | Not Active | Not Active | Not Active | Not Active | Not Active | Not Active | Not Active | Not Active | Not Active | Not Active |  |  |  |  |  |  | 
18 | NCC(CC(=O)O)c1ccc(Cl)cc1 (centres undefined) [BACLOFEN] | Not Active | Not Active | Not Active | Not Active | Not Active | Not Active | Not Active | Not Active | Not Active | Not Active | Not Active |  |  |  |  |  |  | 
19 | CC12CCC(CC1=O)C2(C)C (centres undefined) [CAMPHOR] | Not Active | Not Active | Not Active | Not Active | Not Active | Not Active | Not Active | Not Active | Not Active | Not Active | Not Active |  |  |  |  |  |  | 
20 | POVIDONE | Not Active | Not Active | Not Active | Not Active | Not Active | Not Active | Not Active | Not Active | Not Active | Not Active | Not Active |  |  | Not Active | Not Active | Not Active | Not Active | Not Active
21 | CN(Cc1cc(Br)cc(Br)c1N)C1CCCCC1 [BROMHEXINE] | Not Active | Not Active | Not Active | Not Active | Not Active | Not Active | Not Active | Not Active | Not Active | Not Active | Not Active |  |  |  |  |  |  | 
22 | Cc1ccnc2c1NC(=O)c1cccnc1N2C1CC1 [NEVIRAPINE] | Not Active | Not Active | Not Active | Not Active | Not Active | Not Active | Not Active | Not Active | Not Active | Not Active | Not Active |  |  |  |  |  |  | 
